Laboratory results as given in patent US20250332112A1, “IONIZABLE CATIONIC LIPIDS FOR LIPID NANOPARTICLES” (GENEVANT SCIENCES GMBH, priority 2022, published 2025).
Values belong to the molecule of their own block, whether it stands above or below them.

Tests used:
[1] = Particle characteristics of LNPs containing luciferase mRNA and novel ionizable lipids; type: physicochemical
Procedure: The lipid solution contains 4 components: a PEG-conjugated lipid, an ionizable lipid, cholesterol, and a phospholipid (e.g., DSPC). Lipid stocks were prepared using the lipid identities and molar ratios as described, to achieve a total concentration of ˜7 mg/mL in 100% ethanol. Firefly luciferase mRNA (TriLink Biotechnologies, L-7202) or ornithine transcarbamylase (OTC) mRNA (TriLink Biotechnologies, custom designed) was diluted in acetate, pH 5 buffer and nuclease free water to achieve a target concentration of 0.366 mg/mL mRNA in 100 mM acetate, pH 5. Equal volumes of the lipid and nucleic acid solutions were blended at a flow rate of 400 mL/min through a T-connector, and diluted with ˜4 volumes of PBS, pH 7.4. Formulations were placed in Slide-A-Lyzer dialysis units (MWCO 10,000) and dialyzed overnight against 10 mM Tris, 500 mM NaCl, pH 8 buffer. Following dialysis, the formulations were concentrated to ˜0.6 mg/mL using VivaSpin concentrator units (MWCO 100,000) and dialyzed overnight against 5 mM Tris, 10% sucrose, pH 8 buffer. Formulations were filtered through a 0.2 μm syringe filter (PES membrane). Nucleic acid concentration was determined by the RiboGreen assay. Particle size and polydispersity were determined using a Malvern Nano Series Zetasizer.
LNP formulations containing novel ionizable lipids all produced stable particles with high encapsulation efficiency (Tables 1-7).

[2] = tested on: luciferase activity in the liver; experiment: Luciferase activity in liver after intravenous luciferase mRNA LNP; type: in vivo; conditions: 0.5 mg/kg IV, 6 h post-IV administration, BALB/c mice (n = 4)
Procedure: Frozen aliquots of liver were thawed and homogenized in 1 mL of 1×CCLR (Cell Culture Lysis Reagent) using a FastPrep® homogenizer. The homogenate was then centrifuged at 16,000 RPM for 10 minutes at 4° C. Twenty (20) μL of the supernatant was loaded into a 96-well white plate and luminescence measured following addition of luciferase reagent (Promega Luciferase Assay System). Luciferase activity was determined by comparing luminescence of the homogenized samples to luciferase protein standards. To account for any quenching of luminescence by components in the liver homogenate, luciferase was added to the liver homogenates of untreated animals and the resulting luminescence measured. The resulting quench factor was applied to all samples to obtain the corrected luciferase activity, and normalized per unit mass of tissue analyzed.

[3] = Parent ionizable lipid remaining in liver at 6 h after luciferase mRNA LNP (LC-MS); type: in vivo; conditions: 6 h after IV 0.5 mg/kg Luciferase mRNA LNP
Procedure: Liver tissues were treated with PBS and homogenized with a FastPrep machine, 3 cycles of 5 m/s×15 s. Homogenates from the PBS-treated control animals was pooled and used for standard curve preparation. Samples were extracted into a deep well plate with 250 μL of an internal suitability standard. Plates were centrifuged for 15 min at 4° C. and 2000 rpm. Analysis was performed using an Agilent 6520 QTOF coupled to an Agilent 1290 UHPLC, using reverse-phase LC separation. Quantitation of the ionizable lipid was by MS/MS against a calibration curve spiked into appropriately matched blank matrix. Calibration used a similar class of synthetic lipid as internal standard.
At 6 h post-dose, some treatment groups reported lower levels of novel ionizable lipid in mouse liver compared to the benchmark (Tables 16-18).

[4] = Table 3, luciferase mRNA LNP 1.6:54.6:32.8:10.9
[5] = Table 16, female BALB/c mice (n = 4)
[6] = Table 6, luciferase mRNA LNP 1.6:54.6:32.8:10.9
[7] = Table 18, female BALB/c mice (n = 4)
[8] = Table 1, luciferase mRNA LNP 1.6:54.6:32.8:10.9
[9] = Table 1, luciferase mRNA LNP 1.6:54.6:32.8:10.9 PEG2000-C-DMA:Ionizable lipid:Cholesterol:DSPC
[10] = Table 2, luciferase mRNA LNP 1.6:54.6:32.8:10.9

SMILES: CCCCCCCCCCC(CCCCCC(=O)OCC(CCCCCC)CCCCCCCC)N(CCCCCCCCCC)C(=O)CCCCN(C)C (centres unmarked) [Compound 3, 2-Hexyldecyl 7-(N-decyl-5-(dimethylamino)pentanamido)heptadecanoate]
Final Product % EE [1, 4]: 99% | Final Product PDI [1, 4]: 0.05 | Final Product Z-avg [1, 4]: 91 nm | Luc Activity ([2]; Table 10): 5.94E+07 pg/g liver | Parent ionizable lipid remaining in liver, Average [3, 5]: 7.72 nmol/g liver

SMILES: CCCCCCCCCCC(CCCCCC(=O)OCC(CCCCCC)CCCCCCCC)N(CCCCCCCCCC)C(=O)CCCN(C)C (centres unmarked) [Compound 4, 2-Hexyldecyl 7-(N-decyl-4-(dimethylamino)butanamido)heptadecanoate]
Final Product % EE [1, 4]: 99% | Final Product PDI [1, 4]: 0.03 | Final Product Z-avg [1, 4]: 82 nm | Luc Activity ([2]; Table 10): 7.84E+07 pg/g liver | Parent ionizable lipid remaining in liver, Average [3, 5]: 18.97 nmol/g liver

SMILES: CCCCCCCCCCC(CCCCCCCC(=O)OC(CCCCCC)CCCCCC)N(CCCCCCCCCC)C(=O)CCCN(C)C (centres unmarked) [Compound 5, Tridecan-7-yl 9-(N-decyl-4-(dimethylamino)butanamido)nonadecanoate]
Final Product % EE [1, 6]: 99% | Final Product PDI [1, 6]: 0.05 | Final Product Z-avg [1, 6]: 68 nm | Luc Activity ([2]; Table 13): 9.49E+07 pg/g liver | Parent ionizable lipid remaining in liver, Average ([3]; Table 17, female mice (n = 4)): 49.53 nmol/g liver

SMILES: CCCCCCCCCCN(C(=O)CCCN(C)C)C(CCCCCCCCC)CCCCCCC(F)(F)C(=O)OCC(CCCCCC)CCCCCCCC (centres unmarked) [Compound 17, 2-Hexyldecyl 9-(N-decyl-4-(dimethylamino)butanamido)-2,2-difluorooctadecanoate]
Final Product % EE [1, 6]: 99% | Final Product PDI [1, 6]: 0.10 | Final Product Z-avg [1, 6]: 68 nm | Luc Activity ([2]; Table 13): 5.52E+07 pg/g liver | Parent ionizable lipid remaining in liver, Average ([3]; Table 17, female mice (n = 4)): 24.00 nmol/g liver | Parent ionizable lipid remaining in liver, Average [3, 7]: 36.58 nmol/g liver

SMILES: CCCCCCCCCCON(C(=O)CCCCN(C)C)C(CCCCCCCCCC)CCCCCCC(=O)OCC(CCCCCC)CCCCCCCC (centres unmarked) [Compound 45]
Luc Activity ([2]; Table 13): 8.00E+07 pg/g liver | Parent ionizable lipid remaining in liver, Average ([3]; Table 17, female mice (n = 4)): 36.39 nmol/g liver

SMILES: CCCCCCCCCCC(CCCCCCC(=O)OCC(CCCCCC)CCCCCCCC)N(OCCCCCCCCC)C(=O)CCCN(C)C (centres unmarked) [Compound 46]
Luc Activity ([2]; Table 13): 1.08E+08 pg/g liver | Parent ionizable lipid remaining in liver, Average ([3]; Table 17, female mice (n = 4)): 47.63 nmol/g liver

Final Product % EE [1, 8]: 96% | Final Product PDI [1, 8]: 0.08 | Final Product Z-avg [1, 9]: 61 nm
SMILES: CCCCCCCCCC(CC(=O)OCC(CCCCCC)CCCCCCCC)N(CCCN(C)C)S(=O)(=O)CCCC (centres unmarked) [Compound 49, 2-Hexyldecyl 3-(N-(3-(dimethylamino)propyl)butylsulfonamido)dodecanoate]
Luc Activity ([2]; Table 8): 8.36E+06 pg/g liver

SMILES: CCCCCCCCCCOC(=O)CC(CCCCCCCCC)N(CCCN(C)C)S(=O)(=O)CC(CCCCCC)CCCCCCCC (centres unmarked) [Compound 50, Decyl 3-{N-[3-(dimethylamino)propyl]2-hexyldecanesulfonamido}dodecanoate]
Final Product % EE [1, 8]: 93% | Final Product PDI [1, 8]: 0.07 | Final Product Z-avg [1, 9]: 61 nm | Luc Activity ([2]; Table 8): 4.82E+06 pg/g liver

Final Product % EE [1, 8]: 94% | Final Product PDI [1, 8]: 0.09 | Final Product Z-avg [1, 9]: 62 nm
SMILES: CCCCCCCCCCCS(=O)(=O)N(CCCN(C)C)C(CCCCCCCCC)CC(=O)OCC(CCCCCC)CCCCCCCC (centres unmarked) [Compound 51, 2-hexyldecyl 3-{N-[3-(dimethylamino)propyl]undecane-1-sulfonamido}dodecanoate]
Luc Activity ([2]; Table 8): 2.50E+07 pg/g liver

Final Product % EE [1, 8]: 95% | Final Product PDI [1, 8]: 0.05 | Final Product Z-avg [1, 9]: 72 nm
SMILES: CCCCC/C=C\CCCOC(=O)CC(CCCCCCCCC)N(CCCN(C)C)S(=O)(=O)CCCCCCCCCCC (centres unmarked) [Compound 52, (Z)-Dec-4-en-1-yl 3-(N-(3-(dimethylamino)propyl)undecylsulfonamido)dodecanoate]
Luc Activity ([2]; Table 8): 5.65E+06 pg/g liver

Final Product % EE [1, 10]: 97% | Final Product PDI [1, 10]: (0.07) | Final Product Z-avg [1, 10]: 106 nm
SMILES: CCCCCCCCCC(=O)N(CCCN(C)C)C(CCCCCCCCC)CC(=O)NN(CCCCCCCC)CCCCCCCC (centres unmarked) [Compound 53, N-[3-(dimethylamino)propyl]-N-[1-(N′,N′-dioctylhydrazinecarbonyl)undecan-2-yl]decanamide]
Luc Activity ([2]; Table 9): 8.02E+06 pg/g liver

Final Product % EE [1, 10]: 98% | Final Product PDI [1, 10]: (0.17) | Final Product Z-avg [1, 10]: 94 nm
SMILES: CCCCCCCCCC(=O)N(CCCN(C)C)C(CCCCCCCCC)CC(=O)NN=C(CCCCCCCC)CCCCCCCC (centres unmarked) [Compound 55, N-[3-(dimethylamino)propyl]-N-{1-[N′-(heptadecan-9-ylidene)hydrazinecarbonyl]undecan-2-yl}decanamide]
Luc Activity ([2]; Table 9): 1.22E+06 pg/g liver

Final Product % EE [1, 10]: 96% | Final Product PDI [1, 10]: (0.10) | Final Product Z-avg [1, 10]: 97 nm
SMILES: CCCCC/C=C\CCCC(CCC/C=C\CCCCC)=NNC(=O)CC(CCCCCCCCC)N(CCCN(C)C)C(=O)CCCCCCCCC (centres unmarked) [Compound 56, N-(3-(Dimethylamino)propyl)-N-(1-(2-((6Z,15Z)-henicosa-6,15-dien-11-ylidene)hydrazineyl)-1-oxododecan-3-yl)decanamide]
Luc Activity ([2]; Table 9): 9.00E+06 pg/g liver

Final Product % EE [1, 10]: 99% | Final Product PDI [1, 10]: (0.13) | Final Product Z-avg [1, 10]: 81 nm
SMILES: CCCCCCCCCC(=O)N(CCCN(C)C)C(CCCCCCCCC)CC(=O)NNC(CCCCCCCC)CCCCCCCC (centres unmarked) [Compound 58, N-[3-(dimethylamino)propyl]-N-{1-[N′-(heptadecan-9-yl)hydrazinecarbonyl]undecan-2-yl}decanamide]
Luc Activity ([2]; Table 9): 3.11E+05 pg/g liver

SMILES: CCCCCCCCCCC(CCCCCCC(=O)OCCC(CCCCC)CCCCC)N(CCCCCCCC(=O)OCc1cc(CCCCCC)cc(CCCCCC)c1)C(=O)CCCN(C)C (centres unmarked) [Compound 66]
Luc Activity ([2]; Table 14): 2.00E+07 pg/g liver | Parent ionizable lipid remaining in liver, Average [3, 7]: 34.35 nmol/g liver

SMILES: CCCCCCCCCCC(CCCCCCC(=O)OCCC(CCCCCC)CCCCCC)N(CCCCCCCC(=O)OCCC(CCCCCC)CCCCCC)C(=O)CCCN(C)C (centres unmarked) [Compound 69]
Luc Activity ([2]; Table 13): 4.10E+07 pg/g liver | Parent ionizable lipid remaining in liver, Average ([3]; Table 17, female mice (n = 4)): 50.57 nmol/g liver

SMILES: CCCCCCCCCCC(CCCCCCC(=O)OCCC(CCCCCCC)CCCCCCC)N(CCCCCCCC(=O)OCCC(CCCCCCC)CCCCCCC)C(=O)CCCN(C)C (centres unmarked) [Compound 71]
Luc Activity ([2]; Table 13): 4.58E+07 pg/g liver | Parent ionizable lipid remaining in liver, Average ([3]; Table 17, female mice (n = 4)): 27.52 nmol/g liver

SMILES: CCCCCCCCCCC(CCCCCCC(=O)OCCC(CCCCC)CCCCC)N(CCCCCCCCC(=O)OCCC(CCCCC)CCCCC)C(=O)CCCCN(C)C (centres unmarked) [Compound 75]
Luc Activity ([2]; Table 14): 2.58E+07 pg/g liver | Parent ionizable lipid remaining in liver, Average [3, 7]: 20.44 nmol/g liver

SMILES: CCCCCCCCCCC(CCCCCCC(=O)OCC(CCCCCC)CCCCCCCC)N(CCCN(C)C)C(=O)CCCCCCC(=O)OCCC(CCCCCC)CCCCCC (centres unmarked) [Compound 84]
Luc Activity ([2]; Table 13): 6.26E+07 pg/g liver | Parent ionizable lipid remaining in liver, Average ([3]; Table 17, female mice (n = 4)): 38.96 nmol/g liver

SMILES: CCCCCCCCCCC(CCCCCCC(=O)OCC(CCCCCC)CCCCCCCC)N(CCCN(C)C)C(=O)CCCCCCC(=O)OCCC(CCCCCCC)CCCCCCC (centres unmarked) [Compound 85]
Luc Activity ([2]; Table 13): 4.79E+07 pg/g liver | Parent ionizable lipid remaining in liver, Average ([3]; Table 17, female mice (n = 4)): 37.66 nmol/g liver

SMILES: CCCCCCCCCCC(CCCCCCC(=O)OCCC(CCCCC)CCCCC)N(CCCCCC(F)C(=O)OCCC(CCCCC)CCCCC)C(=O)CCCN(C)C (centres unmarked) [Compound 86]
Luc Activity ([2]; Table 14): 1.21E+07 pg/g liver | Parent ionizable lipid remaining in liver, Average [3, 7]: 12.79 nmol/g liver
